The species entered for assay [1] is Rattus norvegicus. The assay is described as follows: Inhibition of ETC2 in isolated Wistar rat mitochondria assessed as decrease in DCPIP/DB reagent reduction at 5 to 50 uM incubated for 3 to 5 mins and measured for up to 3 mins.
The test system of assay [2] is HL-60. The assay can be described thus: Cytotoxicity against human HL60 cells after 48 hrs by MTT assay. As to conditions: HL-60, 48 h. The assay is classed as functional, cell-based.
The subject of assay [3] is NB-4. The assay can be described thus: Induction of apoptosis in human NB4 cells assessed as DNA fragmentation at 0.6 to 1.2 uM after 24 hrs by Hoechst 33342/propidium iodide staining based confocal microscopic method. The assay is classed as functional, cell-based.

Calls of active or inactive are those of the source. The rule behind the calls is not given here.

What is called IC50 is the concentration that inhibits the measured activity by half. A high value points to weaker potency. With `O=C(CC[P+](c1ccccc1)(c1ccccc1)c1ccccc1)Nc1ccc([As]2SCCCS2)cc1.[Cl-]`, the inhibition entry in assay [1] was “inactive”. This molecule also had an IC50 in assay [2] of 3.23 µM. In addition, the result in assay [3] was Active.

The values above are taken from ChEMBL document CHEMBL4330144, “A mitochondria-targeted organic arsenical accelerates mitochondrial metabolic disorder and function injury” (Bioorg Med Chem, 2019).
